Where a name gives a salt, the structure may show the parent alone. Read-outs that look alike come from different tables or passages of the source.
Legend:
[1] = system: acetic acid-induced colitis; settings: rat, in vivo; cited from earlier work
[2] = 1H NMR hydrogen-deuterium exchange study; format: physicochemical; settings: 25° C., pH 7.0, phosphate buffer (0.1 M)
Experimental: The ratio of the (unexchanged) to the (original) was measured by the diminution of δ 6.33 (d, H-3′, J=2.3) relative to the integration of δ 6.39 (d, H-5′, J=9.0) at time points to 104 min. […] (unexchanged) to the [I-1] (original) was measured by the diminution of δ 6.41 (d, H-4′, J=2.3) relative to the integration of δ 7.54 (d, H-6′, J=2.3) at time points to 16 h. Plots of the natural log of [compound]
Quinone formation could result in redox cycling and, at a cellular level, untoward side effects. […] The exchange rate order is understandable.

[3] = Job's plot stoichiometry of Fe(III) complexes; format: binding; settings: [DFT analog]+[Fe(III)]=1.0 mM, Tris-HCl pH 7.4; theoretical 0.667 for 2:1
Experimental: Solutions containing DFT analog/Fe(III) at different ratios were prepared such that [DFT analog]+[Fe(III)]=1.0 mM in Tris-HCl buffer at pH 7.4. The theoretical mole fraction maximum for a 2:1 DFT analog:Fe complex is 0.667 (indicated by an arrow).
In each instance, the DFT analogs formed 2:1 complexes with Fe(III). […] A 100 mM Tris HCl buffer was used to maintain the pH at 7.4. Solutions containing different DFT analog/Fe(III) ratios were prepared by mixing appropriate volumes of 1.0 mM DFT analog solution and 1.0 mM Fe(III)-nitriloacetate (NTA) in Tris-HCl buffer. The 1.0 mM Fe(III)-NTA solution was prepared immediately prior to use by dilution of a 41.6 mM Fe(III)-NTA stock solution with the Tris HCl buffer, whereas the DFT analog stock solution was prepared by dissolving the DFT analog as its monosodium salt in Tris HCl buffer at pH 7.4. The Fe(III)-NTA stock solution was prepared by mixing equal volumes of […] of FeCl3 and 180 mM trisodium NTA. The iron content of the Fe(III)-NTA solution was verified by atomic absorption spectrophotometry (AAS).

[4] = Octanol-water partition, shake flask (log Papp); format: physicochemical; settings: pH 7.4, Tris buffer
Experimental: The partition values between octanol and water (at pH 7.4, Tris buffer) were determined using a “shake flask” direct method of measuring log Papp values (Sangster et al., Octanol-Water Partition Coefficients: Fundamentals and Physical Chemistry; John Wiley and Sons: West Sussex, England, 1997; Vol. 2). The fraction of compound in the octanol is then expressed as log Papp. […] This is likely due to the presence of the aromatic nitrogen, a moderately good hydrogen bond accepter, on the DFT analogs.

urinary Kim-1 excretion [5] = settings: for renal toxicity (Kim-1, BUN, SCr), summary: rat, in vivo; for survival of dosing period: po twice daily 237 μmol/kg/dose (474 μmol/kg/d), up to 7 d, rats with normal iron stores
Experimental: The compounds were administered to the rats po as their monosodium salts, prepared as described above, twice daily at a dose of 237 μmol/kg/dose (474 μmol/kg/d) for up to 7 d. The studies were performed on rats with normal iron stores. The rats were fasted overnight and were given the first dose of the compound first thing in the morning. The rats were fed ˜3 h post-dose and had access to food for ˜5 h before being fasted overnight.
The rats were housed in individual metabolic cages. […] A baseline (day 0) urine sample was collected and assessed for its Kim-1 content; each animal served as its own control. The urine was collected chilled as previously described (Bergeron et al., “Desferrithiocin Analog Iron Chelators: Iron Clearing Efficiency, Tissue Distribution, and Renal Toxicity.” Biometals, 2011, 24, 239-258).
The chilled urine was collected, vortexed, and warmed to room temperature; any sediment in the samples was allowed to settle. Kim-1 content was assessed using a Rat Kim-1 Rapid Test Kit according to the manufacturer's instructions. The result was read using a ReaScan Test Reader. […] Data are presented as the mean±the standard error of the mean; p-values were generated via a one-tailed Student's t-test in which the inequality of variances was assumed; and a p-value of <0.05 was considered significant.
Assessment of chelator-induced impaired renal function has traditionally relied on the detection of a rise in blood urea nitrogen (BUN) and/or serum creatinine (SCr). However, because of the functional reserve of the kidney, these parameters are often unreliable indicators of acute kidney injury; the ultimate answer requires histopathology. […] BioAssay Works has recently developed RenaStick, a direct lateral flow immunochromato-graphic assay, which allows for the rapid detection (less than 30 minutes) and quantitation of urinary Kim-1 (rat) or KIM-1 (human) excretion (Vaidya et al., “A Rapid Urine Test for Early Detection of Kidney Injury.” Kidney. Int. 2009, 76, 108-114). […] The studies were performed on rats with normal iron stores; each animal served as their own control.

[6] = oral; cited from earlier work
[7] = po once daily 384 μmol/kg/d (100 mg/kg/d), cited from earlier work
iron excretion [8] = settings: cited from earlier work; for relative percentages of the iron excreted in the bile and urine: rodents
iron excretion [9] = test: Iron-clearing efficiency in iron-overloaded primates (fecal and urine samples); format: in vivo, Cebus apella monkeys
Experimental: At least 20 half-lives, 60 days (Wood et al., “The Metabolism of Iron-Dextran Given As a Total-Dose Infusion to Iron Deficient Jamaican Subjects.” Br. J. Hamaetol. 1968, 14, 119-129), elapsed before any of the animals were used in experiments evaluating iron-chelating agents.
Briefly, the collections began 4 days prior to the administration of the test compound and continued for an additional 5 days after the compound was given. Iron concentrations were determined by flame absorption spectroscopy as presented in other publications (Bergeron et al., “A Comparative Evaluation of Iron Clearance Models.” Ann. N.Y. Acad. Sci. 1990, 612, 378-393; Bergeron et al., “Synthesis and Biological Evaluation of Naphthyldesferrithiocin Iron Chelators.” J. Med. Chem. 1996, 39, 1575-1581).
In the text below, the term “iron-clearing efficiency” (ICE) is used as a measure of the amount of iron excretion induced by a chelator. The ICE, expressed as a percent, is calculated as (compound-induced iron excretion/theoretical iron excretion)×100. To illustrate, the theoretical iron excretion after administration of one millimole of desferrioxamine B mesylate (DFO) (FIG. 3), a hexadentate chelator that forms a 1:1 complex with Fe(III), is one milli-g-atom of iron. Two millimoles of desferrithiocin (DFT) (Table 1), a tridentate iron chelator that forms a 2:1 complex with Fe(III), are required for the theoretical excretion of one milli-g-atom of iron. The theoretical iron outputs of the chelators were generated on the basis of a 2:1 compound:iron complex. The efficiencies in the rats and monkeys were calculated as set forth elsewhere (Bergeron et al., “Effects of C-4 Stereochemistry and C-4′ Hydroxylation on the Iron Clearing Efficiency and Toxicity of Desferrithiocin Analogs.” J. Med. Chem. 1999, 42, 2432-2440; Bergeron et al., “HBED: A Potential Alternative to Deferoxamine for Iron-Chelating Therapy.” Blood 1998, 91, 1446-1452).

iron excretion [10] = settings: cited from earlier work; for relative percentages of the iron excreted in the feces and urine: primates
[11] = in vivo; cited from earlier work
urinary Kim-1 excretion [12] = settings: cited from earlier work
[13] = day 8, after 237 μmol/kg twice daily × 7 d
[14] = po twice daily 237 μmol/kg/dose × 7 d
[15] = po 150 μmol/kg, solubilized in 40% Cremophor RH-40/water
[16] = po 150 μmol/kg, 40% Cremophor RH-40/water
[17] = po once daily 28 d, once daily 384 μmol/kg/d × 10 d, twice daily 237 μmol/kg/dose × 7 d

## CC(=O)N(O)CCCCCNC(=O)CCC(=O)N(O)CCCCCNC(=O)CCC(=O)N(O)CCCCCN [DFO, desferrioxamine B mesylate]
[1]
  effect on acetic acid-induced colitis: prevent acetic acid-induced colitis

## C[C@]1(C(=O)O)CSC(c2ncc(O)cc2O)=N1 [I-1, (S)-4,5-Dihydro-2-(3,5-dihydroxy-2-pyridinyl)-4-methyl-4-thiazolecarboxylic Acid]
[2]
  Exchange Rate (s^−1), hydrogen-deuterium exchange: 3.3e-06 s⁻¹
[3]
  observed mole fraction maximum in Job's plot: 0.669
[4]
  LogPapp: −1.68
Urinary Kim-1 excretion [5]; [13]
  BUN: 13 ± 2 mg/dL
  SCr: 0.5 ± 0.1 mg/dL
Urinary Kim-1 excretion [5]
  renal toxicity (Kim-1, BUN, SCr), summary: some nephrotoxicity

## COCCOCCOc1cnc(C2=N[C@@](C)(C(=O)O)CS2)c(O)c1 [I-2, (S)-4,5-Dihydro-2-[3-hydroxy-5-(3,6-dioxaheptyloxy)-2-pyridinyl]-4-methyl-4-thiazolecarboxylic Acid]
[2]
  Exchange Rate (s^−1), hydrogen-deuterium exchange: No change and none and No exchange
[3]
  observed mole fraction maximum in Job's plot: 0.676
[4]
  LogPapp: −1.59
Urinary Kim-1 excretion [5]
  survival of dosing period: All of the animals survived the compound dosing regimen
  renal toxicity (Kim-1, BUN, SCr), summary: little to no impact on renal function
Urinary Kim-1 excretion [5]; [14]
  BUN and SCr: well within the normal range
  urinary Kim-1 excretion versus baseline (day 0): remained within error of that of the baseline (day 0) levels

## C[C@]1(C(=O)O)CSC(c2ncccc2O)=N1 [compound 1, desferrithiocin]
[6]
  nephrotoxicity: severe nephrotoxicity
[7]; planned 10-d, rats with normal iron stores
  mortality: All of the rats were dead by day 5
[7]
  nephrotoxicity: severely nephrotoxic
Iron excretion [8]; [15]
  Rodent Iron-Clearing Efficiency (%): 5.5±3.2%
Iron excretion [8]; [16]
  relative percentages of the iron excreted in the bile and urine: 93/7
Iron excretion [9]; primates po / rodents po
  Performance ratio (PR), mean ICEprimates/ICErodents: 2.9
[4]
  LogPapp: −1.77
Urinary Kim-1 excretion [5]; after one day, 237 μmol/kg/dose twice daily po
  fold increase of urinary Kim-1 over baseline: ~10 fold
Urinary Kim-1 excretion [5]
  survival of dosing period: None of the rats survived
Urinary Kim-1 excretion [5]; two moribund rats sacrificed after four days of 237 μmol/kg/dose twice daily, normal 0.4-1
  SCr: 5.1 ± 0.3 mg/dL
Urinary Kim-1 excretion [5]; two moribund rats sacrificed after four days of 237 μmol/kg/dose twice daily, normal 9-30
  BUN: 139 ± 8 mg/dL
Iron excretion [10]; po 150 μmol/kg
  Primate Iron-Clearing Efficiency (%): 16.1±8.5%
  relative percentages of the iron excreted in the feces and urine: 78/22

## C[C@]1(C(=O)O)CSC(c2ccccc2O)=N1 [compound 2, desazadesferrithiocin]
Iron excretion [8]; [15]
  Rodent Iron-Clearing Efficiency (%): 2.7±0.5%
Iron excretion [8]; [16]
  relative percentages of the iron excreted in the bile and urine: 100/0
Iron excretion [9]; primates po / rodents po
  Performance ratio (PR), mean ICEprimates/ICErodents: 8.0
[11]
  gastrointestinal toxicity: serious gastrointestinal (GI) problems
  nephrotoxicity: not overtly nephrotoxic
[4]
  LogPapp: −0.34
Iron excretion [10]; po 75 μmol/kg
  Primate Iron-Clearing Efficiency (%): 21.5±12%
  relative percentages of the iron excreted in the feces and urine: 76/24

## COCCOCCOCCOc1cccc(C2=N[C@@](C)(C(=O)O)CS2)c1O [compound 5, (S)-4,5-dihydro-2-[2-hydroxy-3-(3,6,9-trioxadecyloxy)]-4-methyl-4-thiazolecarboxylic acid]
[6]
  nephrotoxicity: the renal toxicity virtually disappeared

## COCCOCCOc1ccc(C2=N[C@@](C)(C(=O)O)CS2)c(O)c1 [compound 7]
[6]
  nephrotoxicity: the renal toxicity virtually disappeared
Iron excretion [8]; po 300 μmol/kg, capsules, 48-h sample collection
  Rodent Iron-Clearing Efficiency (%): 26.7±4.7%
Iron excretion [8]; po 300 μmol/kg, capsules, 48 h
  relative percentages of the iron excreted in the bile and urine: 97/3
Iron excretion [9]; primates po, capsule
  Performance ratio (PR), mean ICEprimates/ICErodents: 1.0
Iron excretion [9]; primates po, sodium salt
  Performance ratio (PR), mean ICEprimates/ICErodents: 1.1
[4]
  LogPapp: −0.89
Urinary Kim-1 excretion [12]; [17]
  BUN and SCr: well within the normal range
  survival of dosing period: All of the rats survived the dosing period
  urinary Kim-1 content versus baseline (day 0): stayed within error of this value
Urinary Kim-1 excretion [12]; rat, in vivo
  renal toxicity (Kim-1, BUN, SCr), summary: little to no impact on renal function
Iron excretion [10]; po 75 μmol/kg, capsule
  Primate Iron-Clearing Efficiency (%): 26.3 ± 9.9%
  relative percentages of the iron excreted in the feces and urine: 93/7
Iron excretion [10]; po 75 μmol/kg, sodium salt
  Primate Iron-Clearing Efficiency (%): 28.7 ± 12.4%
  relative percentages of the iron excreted in the feces and urine: 83/17

## COCCOCCOc1cccc(C2=N[C@@](C)(C(=O)O)CS2)c1O [compound 9]
Iron excretion [8]; po 300 μmol/kg, monosodium salt, 48-h sample collection
  Rodent Iron-Clearing Efficiency (%): 15.1 ± 2.0%
Iron excretion [8]; po 300 μmol/kg, monosodium salt, 48 h
  relative percentages of the iron excreted in the bile and urine: 99/1
[4]
  LogPapp: −0.96
Iron excretion [10]; po 75 μmol/kg
  Primate Iron-Clearing Efficiency (%): 22.5 ± 6.4%
  relative percentages of the iron excreted in the feces and urine: 86/14

Source: patent publication US10010535B2, “Desferrithiocin analogs and uses thereof” (University of Florida Research Foundation, Incorporated, priority 2013, dated 2018)
